In article PMC5218480 (PLoS ONE, 2017):

System: MV-4-11 cells
Test: Gene expression microarray analysis (Affymetrix PrimeView) and GSEA
Assay type: cell-based, human
Design: RFU PODN (11730768_x_at) / Fold change /veh PODN (11730768_x_at) / RFU LINC00158 (11744669_a_at) / Fold change /veh LINC00158 (11744669_a_at) / RFU DUSP10 (11751237_a_at) / Fold change /veh DUSP10 (11751237_a_at) / RFU ID3 (11757404_x_at) / Fold change /veh ID3 (11757404_x_at) / RFU PLEKHG5 (11737974_s_at) / Fold change /veh PLEKHG5 (11737974_s_at) / RFU LRRC4B (11730491_at) / Fold change /veh LRRC4B (11730491_at) / RFU GIMAP4 (11747438_a_at) / Fold change /veh GIMAP4 (11747438_a_at) / RFU KRT8 (11758183_x_at) / Fold change /veh KRT8 (11758183_x_at) / RFU CNN1 (11734310_a_at) / Fold change /veh CNN1 (11734310_a_at) / RFU VPS37D (11726825_at) / Fold change /veh VPS37D (11726825_at) / RFU C10orf10 (11716522_x_at) / Fold change /veh C10orf10 (11716522_x_at) / RFU KIR2DL2 /// KIR2DL4 /// KIR2DL5A /// KIR2DL5B /// KIR2DS1 /// KIR2DS2 /// KIR2DS3 /// KIR2DS4 /// KIR3DL3 /// KIR3DL3 /// KIR3DS1 (11738374_at) / Fold change /veh KIR2DL2 /// KIR2DL4 /// KIR2DL5A /// KIR2DL5B /// KIR2DS1 /// KIR2DS2 /// KIR2DS3 /// KIR2DS4 /// KIR3DL3 /// KIR3DL3 /// KIR3DS1 (11738374_at) / RFU C1QL1 (11718748_at) / Fold change /veh C1QL1 (11718748_at) / RFU TMPRSS4 (11747572_a_at) / Fold change /veh TMPRSS4 (11747572_a_at) / RFU HAMP (11756126_x_at) / Fold change /veh HAMP (11756126_x_at) / RFU RNFT2 (11725882_a_at) / Fold change /veh RNFT2 (11725882_a_at) / RFU NR4A2 (11747474_a_at) / Fold change /veh NR4A2 (11747474_a_at) / RFU ABCC12 (11746883_a_at) / Fold change /veh ABCC12 (11746883_a_at) / RFU TMEM136 (11760407_x_at) / Fold change /veh TMEM136 (11760407_x_at) / RFU CLDN22 /// WWC2 (11732394_at) / Fold change /veh CLDN22 /// WWC2 (11732394_at) / RFU HLA-DPB1 (11760878_x_at) / Fold change /veh HLA-DPB1 (11760878_x_at) / RFU SPINT1 (11716480_a_at) / Fold change /veh SPINT1 (11716480_a_at) / RFU GAP43 (11754022_s_at) / Fold change /veh GAP43 (11754022_s_at) / RFU A4GNT (11735810_at) / Fold change /veh A4GNT (11735810_at) / RFU PRB3 (11715151_x_at) / Fold change /veh PRB3 (11715151_x_at) / RFU TUBB4B (11761932_at) / Fold change /veh TUBB4B (11761932_at) / RFU CAPN14 (11732068_a_at) / Fold change /veh CAPN14 (11732068_a_at) / RFU TMCC2 (11721928_a_at) / Fold change /veh TMCC2 (11721928_a_at) / RFU IRGQ (11745062_a_at) / Fold change /veh IRGQ (11745062_a_at) / RFU FAM174B (11720279_a_at) / Fold change /veh FAM174B (11720279_a_at) / RFU TMPRSS4 (11748680_a_at) / Fold change /veh TMPRSS4 (11748680_a_at) / RFU FAM212B (11763350_a_at) / Fold change /veh FAM212B (11763350_a_at) / RFU PLEKHG5 (11743358_a_at) / Fold change /veh PLEKHG5 (11743358_a_at) / RFU ZSCAN30 (11745921_a_at) / Fold change /veh ZSCAN30 (11745921_a_at) / RFU CMKLR1 (11741424_a_at) / Fold change /veh CMKLR1 (11741424_a_at) / RFU LOC101060620 /// MAPK8IP1 (11723275_at) / Fold change /veh LOC101060620 /// MAPK8IP1 (11723275_at) / RFU SPTSSB (11747773_x_at) / Fold change /veh SPTSSB (11747773_x_at) / RFU PRSS12 (11739890_at) / Fold change /veh PRSS12 (11739890_at) / RFU BIN1 (11741810_x_at) / Fold change /veh BIN1 (11741810_x_at) / RFU WNT11 (11732464_a_at) / Fold change /veh WNT11 (11732464_a_at) / RFU C10orf10 (11716521_a_at) / Fold change /veh C10orf10 (11716521_a_at) / RFU C5orf56 (11738089_at) / Fold change /veh C5orf56 (11738089_at) / RFU CYB561 (11721691_x_at) / Fold change /veh CYB561 (11721691_x_at) / RFU ANKRD19P (11752326_a_at) / Fold change /veh ANKRD19P (11752326_a_at) / RFU OR2T12 /// OR2T33 /// OR2T8 (11738714_s_at) / Fold change /veh OR2T12 /// OR2T33 /// OR2T8 (11738714_s_at) / RFU VCAN (11748164_a_at) / Fold change /veh VCAN (11748164_a_at) / RFU JSRP1 (11732532_at) / Fold change /veh JSRP1 (11732532_at) / RFU KRTAP10-11 (11738290_x_at) / Fold change /veh KRTAP10-11 (11738290_x_at) / RFU MYO3A (11730013_a_at) / Fold change /veh MYO3A (11730013_a_at) / RFU EBF3 (11725865_a_at) / Fold change /veh EBF3 (11725865_a_at) / RFU CAMK2N1 (11719241_x_at) / Fold change /veh CAMK2N1 (11719241_x_at) / RFU C5orf56 (11738088_a_at) / Fold change /veh C5orf56 (11738088_a_at) / RFU OLFML3 (11715873_a_at) / Fold change /veh OLFML3 (11715873_a_at) / RFU LOC100653217 /// NTM (11731650_a_at) / Fold change /veh LOC100653217 /// NTM (11731650_a_at) / RFU MAPK11 (11762145_a_at) / Fold change /veh MAPK11 (11762145_a_at) / RFU FIZ1 (11724087_x_at) / Fold change /veh FIZ1 (11724087_x_at) / RFU OASL (11726364_x_at) / Fold change /veh OASL (11726364_x_at) / RFU SOX15 (11748057_x_at) / Fold change /veh SOX15 (11748057_x_at) / RFU CD79A (11719716_a_at) / Fold change /veh CD79A (11719716_a_at) / RFU HIST1H1D (11736915_at) / Fold change /veh HIST1H1D (11736915_at) / RFU CASKIN2 (11723855_a_at) / Fold change /veh CASKIN2 (11723855_a_at) / RFU LOC730098 (11760151_x_at) / Fold change /veh LOC730098 (11760151_x_at) / RFU OR4N2 (11742367_at) / Fold change /veh OR4N2 (11742367_at) / RFU PRRT2 (11749266_a_at) / Fold change /veh PRRT2 (11749266_a_at) / RFU SNX32 (11753110_a_at) / Fold change /veh SNX32 (11753110_a_at) / RFU CDHR5 (11726645_a_at) / Fold change /veh CDHR5 (11726645_a_at) / RFU RCAN1 (11760418_a_at) / Fold change /veh RCAN1 (11760418_a_at) / RFU FAM167A (11723789_a_at) / Fold change /veh FAM167A (11723789_a_at) / RFU FAM26E (11764081_at) / Fold change /veh FAM26E (11764081_at) / RFU ISYNA1 (11749810_s_at) / Fold change /veh ISYNA1 (11749810_s_at) / RFU ACY1 (11761880_at) / Fold change /veh ACY1 (11761880_at) / RFU 11764098_at / Fold change /veh 11764098_at / RFU SAMD14 (11745864_x_at) / Fold change /veh SAMD14 (11745864_x_at) / RFU NPB (11741838_a_at) / Fold change /veh NPB (11741838_a_at) / RFU TMPRSS6 (11731388_a_at) / Fold change /veh TMPRSS6 (11731388_a_at) / RFU KRTAP10-2 (11738614_at) / Fold change /veh KRTAP10-2 (11738614_at) / RFU ARHGAP8 /// PRR5-ARHGAP8 (11727945_x_at) / Fold change /veh ARHGAP8 /// PRR5-ARHGAP8 (11727945_x_at) / RFU KRTAP5-7 /// NADSYN1 (11734609_at) / Fold change /veh KRTAP5-7 /// NADSYN1 (11734609_at) / RFU RASL12 (11751679_a_at) / Fold change /veh RASL12 (11751679_a_at) / RFU CDKN2B (11736163_a_at) / Fold change /veh CDKN2B (11736163_a_at) / RFU PRF1 (11729649_at) / Fold change /veh PRF1 (11729649_at) / RFU, ZNF638 /// ZNF638-IT1 / Fold change vs veh, ZNF638 /// ZNF638-IT1 / RFU, PANK3 / Fold change vs veh, PANK3 / RFU, SH3YL1 / Fold change vs veh, SH3YL1 / RFU, ZEB2 / Fold change vs veh, ZEB2 / RFU, NRIP1 / Fold change vs veh, NRIP1 / RFU, PTTG1IP / Fold change vs veh, PTTG1IP / RFU, CAPN2 / Fold change vs veh, CAPN2 / RFU, MED14 / Fold change vs veh, MED14 / RFU, SNORA58 / Fold change vs veh, SNORA58 / RFU, C1orf63 / Fold change vs veh, C1orf63 / RFU, LRRFIP1 / Fold change vs veh, LRRFIP1 / RFU, NDUFAF7 / Fold change vs veh, NDUFAF7 / RFU, SLC12A2 / Fold change vs veh, SLC12A2 / RFU, IBTK / Fold change vs veh, IBTK / RFU, ESF1 / Fold change vs veh, ESF1 / Fold change vs veh, TMEM50B / RFU, TAOK1 / Fold change vs veh, TAOK1 / RFU, ACBD3 / Fold change vs veh, ACBD3 / RFU, TMA16 / Fold change vs veh, TMA16 / RFU, RWDD3 / Fold change vs veh, RWDD3 / RFU, BCAT1 / Fold change vs veh, BCAT1 / RFU, EDEM3 / Fold change vs veh, EDEM3 / RFU, TMEM33 / Fold change vs veh, TMEM33 / RFU, WDR75 / Fold change vs veh, WDR75 / RFU, AHCTF1 / Fold change vs veh, AHCTF1 / RFU, TFRC / Fold change vs veh, TFRC / RFU, ZDHHC17 / Fold change vs veh, ZDHHC17 / RFU, NOM1 / Fold change vs veh, NOM1 / RFU, ARL8B / Fold change vs veh, ARL8B / RFU, ZBTB11 / Fold change vs veh, ZBTB11 / RFU, TAMM41 / Fold change vs veh, TAMM41 / RFU, KIAA1704 /// LOC100996395 / Fold change vs veh, KIAA1704 /// LOC100996395 / RFU, ING1 / Fold change vs veh, ING1 / RFU, TRMT61B / Fold change vs veh, TRMT61B / RFU, FUBP3 / Fold change vs veh, FUBP3 / RFU, TP53 / Fold change vs veh, TP53 / RFU, TNKS2 / Fold change vs veh, TNKS2 / RFU, ZFP14 / Fold change vs veh, ZFP14 / RFU, ACTR2 / Fold change vs veh, ACTR2 / RFU, PPP3R1 / Fold change vs veh, PPP3R1 / RFU, PIK3R1 / Fold change vs veh, PIK3R1 / RFU, HNRNPA1 / Fold change vs veh, HNRNPA1 / RFU, RNF170 / Fold change vs veh, RNF170 / RFU, ZNF28 / Fold change vs veh, ZNF28 / RFU, RNGTT / Fold change vs veh, RNGTT / RFU, OGT / Fold change vs veh, OGT / RFU, BRD1 / Fold change vs veh, BRD1 / RFU, MARS / Fold change vs veh, MARS / RFU, ZNF655 / Fold change vs veh, ZNF655 / RFU, FAHD1 / Fold change vs veh, FAHD1 / RFU, BDP1 / Fold change vs veh, BDP1 / RFU, LRRCC1 / Fold change vs veh, LRRCC1 / RFU, ARID1A / Fold change vs veh, ARID1A / RFU, ZNF146 / Fold change vs veh, ZNF146 / RFU, ZNF330 / Fold change vs veh, ZNF330 / RFU, GPN3 / Fold change vs veh, GPN3 / RFU, C9orf123 / Fold change vs veh, C9orf123 / RFU, N4BP2L2 / Fold change vs veh, N4BP2L2 / RFU, ARFIP1 / Fold change vs veh, ARFIP1 / RFU, FAM179B / Fold change vs veh, FAM179B / RFU, BCL10 / Fold change vs veh, BCL10 / RFU, UHRF1BP1L / Fold change vs veh, UHRF1BP1L / RFU, BET1 / Fold change vs veh, BET1 / RFU, CNOT2 / Fold change vs veh, CNOT2 / RFU, ZNF268 / Fold change vs veh, ZNF268 / Fold change vs veh, ZNF507 / RFU, DGCR2 / Fold change vs veh, DGCR2 / RFU, WDSUB1 / Fold change vs veh, WDSUB1 / Fold change vs veh, HSP90B1 /// MIR3652 / RFU, ADSS / Fold change vs veh, ADSS / RFU, GK / Fold change vs veh, GK / RFU, ZNF148 / Fold change vs veh, ZNF148 / RFU, TAF9 / Fold change vs veh, TAF9 / RFU, SLC1A5 / Fold change vs veh, SLC1A5 / RFU, SLMO2 / Fold change vs veh, SLMO2 / RFU, ABCC4 / Fold change vs veh, ABCC4 / RFU, LOC101060439 /// RAP1B / Fold change vs veh, LOC101060439 /// RAP1B / RFU, RFX7 / Fold change vs veh, RFX7 / RFU, GTPBP10 / Fold change vs veh, GTPBP10 / RFU, CNEP1R1 / Fold change vs veh, CNEP1R1 / RFU, BIVM-ERCC5 /// ERCC5 / Fold change vs veh, BIVM-ERCC5 /// ERCC5 / RFU, ILF3 / Fold change vs veh, ILF3 / RFU 11762660_at / Fold change /veh 11762660_at / RFU VCAN (11757783_s_at) / Fold change /veh VCAN (11757783_s_at) / RFU DDX43 (11728927_at) / Fold change /veh DDX43 (11728927_at) / RFU KRT8 (11758188_x_at) / Fold change /veh KRT8 (11758188_x_at) / RFU NKD1 (11759106_at) / Fold change /veh NKD1 (11759106_at) / RFU SRD5A1 (11742802_a_at) / Fold change /veh SRD5A1 (11742802_a_at) / RFU TPSAB1 /// TPSB2 (11721975_s_at) / Fold change /veh TPSAB1 /// TPSB2 (11721975_s_at) / RFU GSTM3 (11746129_a_at) / Fold change /veh GSTM3 (11746129_a_at) / RFU IL23R (11737362_x_at) / Fold change /veh IL23R (11737362_x_at) / RFU TMEM51 (11727254_a_at) / Fold change /veh TMEM51 (11727254_a_at) / RFU PIWIL2 (11732686_x_at) / Fold change /veh PIWIL2 (11732686_x_at) / RFU ORM1 (11744905_x_at) / Fold change /veh ORM1 (11744905_x_at) / RFU CCDC152 (11743942_at) / Fold change /veh CCDC152 (11743942_at) / RFU ECM1 (11717891_a_at) / Fold change /veh ECM1 (11717891_a_at) / RFU IL23R (11748794_a_at) / Fold change /veh IL23R (11748794_a_at) / RFU TNFAIP8L3 (11732012_x_at) / Fold change /veh TNFAIP8L3 (11732012_x_at) / RFU MBOAT4 (11741988_at) / Fold change /veh MBOAT4 (11741988_at) / RFU 11764193_at / Fold change /veh 11764193_at / RFU TMEM53 (11763286_at) / Fold change /veh TMEM53 (11763286_at) / RFU MAGEB2 (11727129_at) / Fold change /veh MAGEB2 (11727129_at) / RFU TMEM200A (11744735_a_at) / Fold change /veh TMEM200A (11744735_a_at) / RFU CCDC152 (11751479_a_at) / Fold change /veh CCDC152 (11751479_a_at) / RFU FAM211A (11726209_a_at) / Fold change /veh FAM211A (11726209_a_at) / RFU RGS16 (11746705_a_at) / Fold change /veh RGS16 (11746705_a_at) / RFU VCAN (11755009_s_at) / Fold change /veh VCAN (11755009_s_at) / RFU RHOB (11743442_s_at) / Fold change /veh RHOB (11743442_s_at) / RFU RGS16 (11720943_a_at) / Fold change /veh RGS16 (11720943_a_at) / RFU RGS16 (11720944_at) / Fold change /veh RGS16 (11720944_at) / RFU, VPS4B / Fold change vs veh, VPS4B / RFU, CREB1 / Fold change vs veh, CREB1 / RFU, DNAJC13 / Fold change vs veh, DNAJC13 / RFU, GNAQ / Fold change vs veh, GNAQ / RFU, CDK5R1 / Fold change vs veh, CDK5R1 / RFU, ZRANB3 / Fold change vs veh, ZRANB3 / RFU, CUL4A / Fold change vs veh, CUL4A / RFU, CCNY / Fold change vs veh, CCNY / RFU, UFL1 / Fold change vs veh, UFL1 / RFU, COG3 / Fold change vs veh, COG3 / RFU, DIAPH2 / Fold change vs veh, DIAPH2 / RFU, SKA2 / Fold change vs veh, SKA2 / RFU, AFF3 / Fold change vs veh, AFF3 / RFU, LMF1 / Fold change vs veh, LMF1 / RFU, IPO11 / Fold change vs veh, IPO11 / RFU, DFFB / Fold change vs veh, DFFB / RFU, FOXP1 / Fold change vs veh, FOXP1 / RFU, CARD8 / Fold change vs veh, CARD8 / RFU, STRN3 / Fold change vs veh, STRN3 / RFU, ADK / Fold change vs veh, ADK / RFU, RASSF2 / Fold change vs veh, RASSF2 / RFU, WIPF1 / Fold change vs veh, WIPF1 / RFU, LARP1B / Fold change vs veh, LARP1B / RFU, RASA1 / Fold change vs veh, RASA1 / RFU, RB1 / Fold change vs veh, RB1 / RFU, PPFIA1 / Fold change vs veh, PPFIA1 / RFU, MAT2A / Fold change vs veh, MAT2A / RFU, CCT5 / Fold change vs veh, CCT5 / RFU, WDR92 / Fold change vs veh, WDR92 / RFU, CUX1 / Fold change vs veh, CUX1 / RFU, TTC7A / Fold change vs veh, TTC7A / RFU, TMEM135 / Fold change vs veh, TMEM135 / RFU, DEPTOR / Fold change vs veh, DEPTOR / RFU, CPM / Fold change vs veh, CPM / RFU, DNAJB6 / Fold change vs veh, DNAJB6 / RFU, CACNA2D3 / Fold change vs veh, CACNA2D3 / RFU, DTX4 / Fold change vs veh, DTX4 / RFU, TFCP2 / Fold change vs veh, TFCP2 / RFU, GMCL1 /// GMCL1P1 / Fold change vs veh, GMCL1 /// GMCL1P1 / RFU, AEBP2 / Fold change vs veh, AEBP2 / RFU, SNHG1 /// SNORD22 /// SNORD25 /// SNORD26 /// SNORD27 /// SNORD28 /// SNORD29 /// SNORD31 / Fold change vs veh, SNHG1 /// SNORD22 /// SNORD25 /// SNORD26 /// SNORD27 /// SNORD28 /// SNORD29 /// SNORD31 / Fold change (Aza/veh), C12orf56 (ProbeSet 11735607_a_at) / Fold change (ACY-1035/veh), C12orf56 (ProbeSet 11735607_a_at) / Fold change (Aza/veh), FGFR1OP (ProbeSet 11751329_s_at) / Fold change (ACY-1035/veh), FGFR1OP (ProbeSet 11751329_s_at) / Fold change (Aza/veh), VPS36 (ProbeSet 11739960_a_at) / Fold change (ACY-1035/veh), VPS36 (ProbeSet 11739960_a_at) / RFU SYPL1 (11715823_x_at) / Fold change /veh SYPL1 (11715823_x_at) / RFU IGFBP7 (11715501_s_at) / Fold change /veh IGFBP7 (11715501_s_at) / RFU REEP3 (11722064_at) / Fold change /veh REEP3 (11722064_at) / RFU IGLL1 (11728026_x_at) / Fold change /veh IGLL1 (11728026_x_at): dose or concentration left out as unconfirmed
Details: ProbeSet 11732370_a_at; LIST D

Nc1ccc(-c2cccs2)cc1NC(=O)c1ccc2c(c1)cc(C1CC1)n2CCN1CCOCC1 [ACY-1035]
RFU, CUX1: 235.11 RFU
